The record followed here is paper PMC9418665, “Fatty acid amide hydrolase inhibition and N‐arachidonoylethanolamine modulation by isoflavonoids: A novel target for upcoming antidepressants” (Pharmacology Research & Perspectives, 2022).

For this assay, the target named is T1, fatty acid amide hydrolase (FAAH) (Homo sapiens, UniProt O00519).
T1 sequence (O00519 1-579): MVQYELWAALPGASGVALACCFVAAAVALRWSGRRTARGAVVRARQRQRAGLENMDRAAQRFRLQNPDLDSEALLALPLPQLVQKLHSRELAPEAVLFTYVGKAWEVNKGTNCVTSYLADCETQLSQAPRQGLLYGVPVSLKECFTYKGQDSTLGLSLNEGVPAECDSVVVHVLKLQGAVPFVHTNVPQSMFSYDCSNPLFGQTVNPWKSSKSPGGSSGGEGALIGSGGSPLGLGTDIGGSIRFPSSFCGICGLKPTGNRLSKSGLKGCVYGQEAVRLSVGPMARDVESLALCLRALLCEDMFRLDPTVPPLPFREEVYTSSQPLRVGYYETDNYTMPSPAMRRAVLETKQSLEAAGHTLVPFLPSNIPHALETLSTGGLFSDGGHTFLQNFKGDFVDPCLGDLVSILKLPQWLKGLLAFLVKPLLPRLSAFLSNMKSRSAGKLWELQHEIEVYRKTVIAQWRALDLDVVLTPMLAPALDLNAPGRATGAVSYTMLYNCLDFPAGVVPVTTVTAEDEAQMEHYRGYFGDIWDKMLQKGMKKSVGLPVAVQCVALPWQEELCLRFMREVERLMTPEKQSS
In words: biochemical.

Molecules are shown by their SMILES. Read-outs that look alike come from different tables or passages of the source.

Consider `O=c1cc(-c2ccccc2)oc2cc(O)ccc12` [7-hydroxyflavone], for which inhibition was half-maximal at 2040 ± 190 nM (IC50).

`CCCCC/C=C\C/C=C\C/C=C\C/C=C\CCCC(=O)NCCc1c[nH]c2ccc(O)cc12` [arch-5HT]: it took 1040 ± 130 nM to reach half-maximal inhibition (IC50).

Regarding `COc1ccc(-c2coc3cc(O)cc(O)c3c2=O)cc1` [biochanin-A], the IC50 (as a rule, the midpoint of a concentration-inhibition curve) (read-out: IC50) worked out at 2100 ± 240 nM.

For the compound `O=c1c(-c2ccc(O)cc2)coc2cc(O)cc(O)c12` [genistein], the IC50 (read-out: IC50) came to 1300 ± 130 nM.
